This experiment has as its target T1, Bile acid receptor (Homo sapiens) (UniProt Q96RI1).
T1 sequence (whole entry): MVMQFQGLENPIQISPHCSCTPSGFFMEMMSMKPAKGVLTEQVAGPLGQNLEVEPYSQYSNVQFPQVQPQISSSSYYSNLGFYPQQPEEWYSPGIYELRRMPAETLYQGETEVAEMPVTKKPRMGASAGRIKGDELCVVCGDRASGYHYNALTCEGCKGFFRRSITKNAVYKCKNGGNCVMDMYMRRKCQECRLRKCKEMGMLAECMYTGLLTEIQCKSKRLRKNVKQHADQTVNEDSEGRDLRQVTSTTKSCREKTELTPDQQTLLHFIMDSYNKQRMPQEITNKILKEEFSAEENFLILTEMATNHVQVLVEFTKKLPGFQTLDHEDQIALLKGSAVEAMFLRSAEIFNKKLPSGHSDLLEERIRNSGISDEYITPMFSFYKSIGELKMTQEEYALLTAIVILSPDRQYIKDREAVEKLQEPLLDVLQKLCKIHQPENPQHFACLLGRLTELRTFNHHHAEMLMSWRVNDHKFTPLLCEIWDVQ

The structures appear in SMILES notation.

As for `CC(C)c1onc(-c2c(Cl)cccc2Cl)c1COc1ccc(/C=C/c2cccc(C(=O)O)c2)c(Cl)c1`, the RE was found to be 1.4.
